Key:
[1] = tested on: AKT protein phosphorylated on serine 473 (pAKT-S473); experiment: Study of pAKT expression in PC3 human prostate carcinoma cells measured by western blotting (Test A); type: cell-based; conditions: PC-3, inhibition of AKT phosphorylation (pAKT-S473), 1 to 2 hours incubation, absolute IC50, mean of two experiments
Protocol: The inhibitory activity of the molecules on AKT phosphorylation is measured either by western blotting using the technique described below, or by the MSD Multi-spot Biomarker detection technique from Meso Scale Discovery also described below.
Study of pAKT Expression in PC3 Human Prostate Carcinoma Cells Measured by Western Blotting (Test A):
On day 2, the cells are incubated in the presence or absence of the test products for 1 to 2 hours at 37° C. in the presence of 5% CO2. The molecules, diluted in dimethyl sulphoxide (DMSO Sigma #D2650), are added from a 10-times concentrated stock solution, the final percentage of DMSO being 0.1%. The molecules are tested either at a single concentration of less than or equal to 10 μM, or at increasing concentrations in a range that can extend from less than 1 nM to 10 μM.
After this incubation, the cells are lysed for the preparation of the proteins.
The lysate is centrifuged for 10 min at 6000 rpm. 155 μl of supernatant are recovered. 150 μl are incubated for denaturation for 5 min at 95° C. in the presence of 4× NuPAGE LDS Sample Buffer diluted 4-fold (InVitrogen ref NP0007) and of 10× NuPAGE Sample Reducing Agent diluted 10-fold (InVitrogen ref NP0009). These samples are then frozen at −20° C.
The gel is then transferred on to an Invitrolon PVDF membrane (Invitrogen #LC2007) permeabilised beforehand and for a few seconds in ethanol (Ethanol Fischer Scientific #E/0600DF/15).
The transfer is carried out in a Biorad tank at 30 volts overnight or at 60 volts for 3 hours, in the presence of 20× NUPAGE Transfer Buffer diluted 20-fold (InVitrogen ref NP0006).
The membrane is then saturated in saturating solution composed of TBS (10× Tris Buffered Saline, Sigma #T5912, diluted 10-fold), 0.1% Tween (Sigma #P5927) and 3% BSA (Bovine Albumin Serum Fraction V, Sigma #A4503) for 6 h after overnight transfer or else for 1 h after transfer for a period of 3 h.
Two rinses for min in washing solution composed of TBS and 0.1% Tween 20 are carried out before hybridisation of the secondary antibodies.
The secondary antibodies are diluted 110000th for the rabbit anti-Mouse IgG HRP antibody (W402 Promega) and to 110000th for the goat anti-Rabbit IgG HRP antibody (W401 Promega) in saturating solution, and then shaken for 1 h at ambient temperature.
Two rinses for 30 min in washing solution are carried out and then a rinse for 5 min in H2O is carried out in order to eliminate the remaining Tween 20.
The luminescence is read with the FujiFilm device (Ray Test).
The FUJI device measures the total luminescence signal obtained (AU) for each band selected. It then subtracts the background noise (BG) proportional to the size of the band selected (Area), said background noise being calculated from a specific background noise band, with a view to obtaining the specific signal (AU-BG) for each band. The band obtained in the absence of product and in the presence of 0.1% DMSO is considered to be the 100% signal. The software calculates the % specific activity (Ratio) obtained for each band selected as a function of this 100% signal. The percentage inhibition is calculated for each concentration according to the formula (100%−Ratio).
Two independent experiments make it possible to calculate the mean of the percentages of inhibition obtained at a given concentration for the products tested only at one concentration.
Two independent experiments make it possible to calculate the mean of the IC50s.

melting point [°C]	IC50 [1] [nM]	Compound
248	737	O=C(Cc1nc(N2CCOCC2)cc(=O)[nH]1)Nc1cccc(F)c1F [Example 12, N-(2,3-difluorophenyl)-2-[4-(morpholin-4-yl)-6-oxo-1,6-dihydropyrimidin-2-yl]acetamide]
> 260	10000	O=C(Cc1nc(N2CCOCC2)cc(=O)[nH]1)Nc1ccc(F)c(CO)c1 [Example 35, N-[4-fluoro-3-(hydroxymethyl)phenyl]-2-[4-(morpholin-4-yl)-6-oxo-1,6-dihydropyrimidin-2-yl]acetamide]
246	200	O=C(Cc1nc(N2CCOCC2)cc(=O)[nH]1)Nc1cccc(C2CC2)c1 [Example 36, N-(3-cyclopropylephenyl)-2-[4-(morpholin-4-yl)-6-oxo-1,6-dihydropyrimidin-2-yl]acetamide]
> 260	10000	O=C(Cc1nc(N2CCOCC2)cc(=O)[nH]1)Nc1ccccc1O [Example 37, N-(2-hydroxyphenyl)-2-[4-(morpholin-4-yl)-6-oxo-1,6-dihydropyrimidin-2-yl]acetamide]
194	2500	CC(C)(C)OC(=O)NCCc1cccc(NC(=O)Cc2nc(N3CCOCC3)cc(=O)[nH]2)c1 [Example 46, 2-methylpropan-2-yl {2-[3-({[4-(morpholin-4-yl)-6-oxo-1,6-dihydropyrimidin-2-yl]acetyl}amino)phenyl]ethyl}-carbamate]
266	250	Cn1c(CC(=O)Nc2cccc(Br)c2)nc(N2CCOCC2)cc1=O [Example 69, N-(3-bromophenyl)-2-[1-methyl-4-(morpholin-4-yl)-6-oxo-1,6-dihydropyrimidin-2-yl]acetamide]
220	650	COCc1cc(NC(=O)Cc2nc(N3CCOCC3)cc(=O)[nH]2)ccc1F [Example 73, N-[4-fluoro-3-(methoxymethyl)phenyl]-2-[4-(morpholin-4-yl)-6-oxo-1,6-dihydropyrimidin-2-yl]acetamide]
